Results as given in ChEMBL document CHEMBL4359918, “Discovery of tissue selective liver X receptor agonists for the treatment of atherosclerosis without causing hepatic lipogenesis” (Eur J Med Chem, 2019).
Values belong to the molecule of their own block, whether it stands above or below them. Activity calls are given as the source filed them. The rule behind the calls is not given here.

Experiments:
[1] = tested on: HepG2; assay: Effect on TG accumulation in human HepG2 cells at 10 uM incubated for 24 hrs; assay type: ADME, cell-based; settings: hepg2, 24 h
[2] = Selectivity index, ratio of compound effect for agonist activity at human LXRalpha to compound effect for agonist activity at […]
[3] = Agonist activity at LXR in mouse RAW264.7 cells assessed as increase in sREBP-1c mRNA expression at 10 uM incubated for 48 hrs by qPCR analysis; assay type: cell-based; settings: raw264.7, 48 h
[4] = species on record: Mus musculus; assay: Agonist activity at LXR in C57BL/6 mouse PBMC assessed as increase in ABCA1 mRNA expression at 10 uM incubated for 48 hrs by qPCR analysis
[5] = Agonist activity at LXR in mouse 3T3L1 preadipocytes assessed as increase in ABCA1 mRNA expression at 10 uM by qPCR analysis; assay type: cell-based
[6] = tested on: HepG2; assay: Lipid lowering activity in human HepG2 cells assessed as decrease in OA-induced TG accumulation at 10 uM incubated for 24 hrs; assay type: functional, cell-based
[7] = Agonist activity at LXR in C57BL/6 mouse PBMC assessed as increase in sREBP-1c mRNA expression at 10 uM incubated for 48 hrs by qPCR analysis
[8] = biological target: T1, Oxysterols receptor LXR-beta (Rattus norvegicus) (UniProt Q62755); assay: Agonist activity at rat LXRbeta transfected in HEK293T cells at 10 uM incubated for 20 hrs by luciferase reporter gene assay relative to control; assay type: cell-based
T1 sequence (whole entry): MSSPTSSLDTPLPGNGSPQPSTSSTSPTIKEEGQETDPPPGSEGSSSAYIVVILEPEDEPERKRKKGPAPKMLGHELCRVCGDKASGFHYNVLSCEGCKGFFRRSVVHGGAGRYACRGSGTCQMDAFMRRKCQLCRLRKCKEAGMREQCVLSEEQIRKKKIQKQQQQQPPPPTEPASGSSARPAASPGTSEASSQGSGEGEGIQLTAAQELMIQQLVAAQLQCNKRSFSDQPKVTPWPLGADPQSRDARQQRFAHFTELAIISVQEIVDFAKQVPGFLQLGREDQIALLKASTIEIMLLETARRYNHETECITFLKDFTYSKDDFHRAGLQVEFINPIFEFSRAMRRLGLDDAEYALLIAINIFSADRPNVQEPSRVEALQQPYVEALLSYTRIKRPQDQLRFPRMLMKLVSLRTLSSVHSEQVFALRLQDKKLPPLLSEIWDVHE

[9] = biological target: T2, LXRalpha (Oxysterols receptor LXR-alpha) (Homo sapiens, UniProt Q13133); assay: Agonist activity at human LXRalpha transfected in HEK293T cells at 10 uM incubated for 20 hrs by luciferase reporter gene assay relative to control; assay type: cell-based; settings: HEK293T cells transfected with human LXRalpha, read-out: FC
T2 sequence (Q13133 whole entry): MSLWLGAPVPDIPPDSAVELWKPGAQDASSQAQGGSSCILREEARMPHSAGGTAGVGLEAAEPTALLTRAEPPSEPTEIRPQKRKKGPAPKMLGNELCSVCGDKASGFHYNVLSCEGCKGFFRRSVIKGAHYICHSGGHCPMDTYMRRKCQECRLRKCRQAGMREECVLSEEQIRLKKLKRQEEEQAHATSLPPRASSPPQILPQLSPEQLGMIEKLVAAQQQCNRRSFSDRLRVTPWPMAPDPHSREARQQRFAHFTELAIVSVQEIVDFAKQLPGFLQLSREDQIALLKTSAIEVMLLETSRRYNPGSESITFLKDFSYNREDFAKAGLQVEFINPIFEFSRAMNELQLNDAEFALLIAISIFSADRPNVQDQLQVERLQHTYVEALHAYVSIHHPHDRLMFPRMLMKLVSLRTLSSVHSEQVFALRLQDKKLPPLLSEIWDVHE

[10] = biological target: Liver X receptor (Homo sapiens) (UniProt Q13133+P55055); assay: Agonist activity at LXR in human HepG2 cells assessed as increase in ABCA1 mRNA expression at 10 uM incubated for 24 hrs by qPCR analysis; assay type: cell-based
Liver X receptor (Homo sapiens), sequence (P55055 whole entry, looked up, one chain of several): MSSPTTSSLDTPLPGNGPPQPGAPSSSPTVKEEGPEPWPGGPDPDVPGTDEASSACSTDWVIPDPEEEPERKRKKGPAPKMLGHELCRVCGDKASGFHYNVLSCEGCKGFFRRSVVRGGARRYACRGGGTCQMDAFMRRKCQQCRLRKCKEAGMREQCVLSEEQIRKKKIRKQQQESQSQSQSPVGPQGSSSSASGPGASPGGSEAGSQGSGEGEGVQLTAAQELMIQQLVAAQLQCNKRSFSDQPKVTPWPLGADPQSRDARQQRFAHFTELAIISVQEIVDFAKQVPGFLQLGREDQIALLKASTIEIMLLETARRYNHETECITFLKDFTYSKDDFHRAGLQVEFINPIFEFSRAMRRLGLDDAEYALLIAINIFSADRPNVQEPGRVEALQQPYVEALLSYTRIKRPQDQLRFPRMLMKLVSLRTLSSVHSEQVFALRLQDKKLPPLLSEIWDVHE

[11] = Agonist activity at LXR in mouse 3T3L1 preadipocytes assessed as increase in sREBP-1c mRNA expression at 10 uM by qPCR analysis; assay type: cell-based
[12] = tested on: Mus musculus; assay: Anti-atherosclerotic activity in high fat diet-induced C57BL/6 mouse model of hypercholesterolemia assessed as reduction in liver weight at 10 to 40 mg/kg, po administered for 12 weeks by H and E staining-based assay; assay type: functional, organism-based
[13] = tested on: RAW264.7; assay: Anti-atherosclerotic activity in mouse RAW264.7 cells assessed as inhibition of ox-LDL induced lipid accumulation at 10 uM incubated for 48 hrs by ORO staining based microscopic analysis; assay type: functional, cell-based
[14] = tested on: Mus musculus; assay: Anti-atherosclerotic activity in high fat diet-induced C57BL/6 mouse model of hypercholesterolemia assessed as increase in ABCG5 mRNA expression in ileum at 10 to 40 mg/kg, po administered for 12 weeks by RT-qPCR analysis; assay type: functional, organism-based
[15] = tested on: 3T3-L1; assay: Anti-adipogenic activity in mouse 3T3L1 preadipocytes assessed as decrease in lipid accumulation by Oil Red O staining-based microscopic analysis; assay type: functional, cell-based
[16] = tested on: Mus musculus; assay: Anti-atherosclerotic activity in high fat diet-induced C57BL/6 mouse model of hypercholesterolemia assessed as reduction in hepatic triglyceride level at 10 to 40 mg/kg, po administered for 12 weeks; assay type: functional, organism-based
[17] = tested on: Mus musculus; assay: Anti-atherosclerotic activity in high fat diet-induced C57BL/6 mouse model of hypercholesterolemia assessed as increase in CYP7A1 mRNA expression in liver at 10 to 40 mg/kg, po administered for 12 weeks by RT-qPCR analysis; assay type: functional, organism-based
[18] = tested on: 3T3-L1; assay: Cytotoxicity against mouse 3T3L1 preadipocytes assessed as reduction in cell viability at 2 to 50 uM incubated for 24 hrs by MTT assay; assay type: cell-based; settings: 3t3-l1, 24 h
[19] = tested on: RAW264.7; assay: Agonist activity at LXR in mouse RAW264.7 cells assessed as increase in ABCA1 mRNA expression at 10 uM incubated for 48 hrs by qPCR analysis; assay type: cell-based
[20] = tested on: Mus musculus; assay: Anti-atherosclerotic activity in high fat diet-induced C57BL/6 mouse model of hypercholesterolemia assessed as increase in ABCG8 mRNA expression in ileum at 10 to 40 mg/kg, po administered for 12 weeks by RT-qPCR analysis; assay type: functional, organism-based
[21] = tested on: Mus musculus; assay: Anti-atherosclerotic activity in high fat diet-induced C57BL/6 mouse model of hypercholesterolemia assessed as increase in ABCG1 mRNA expression in small intestine at 10 to 40 mg/kg, po administered for 12 weeks by RT-qPCR analysis; assay type: functional, organism-based
[22] = tested on: RAW264.7; assay: Inhibition of macrophage foam cell formation in mouse RAW264.7 cells assessed as reduction in ox-LDL induced total cholesterol level at 10 uM measured after 48 hrs; assay type: functional, cell-based
[23] = tested on: Mus musculus; assay: Anti-atherosclerotic activity in high fat diet-induced C57BL/6 mouse model of hypercholesterolemia assessed as reduction in ALT level at 10 to 40 mg/kg, po administered for 12 weeks; assay type: functional, organism-based
[24] = tested on: Mus musculus; assay: Anti-atherosclerotic activity in high fat diet-induced C57BL/6 mouse model of hypercholesterolemia assessed as increase in ABCA1 mRNA expression in small intestine at 10 to 40 mg/kg, po administered for 12 weeks by RT-qPCR analysis; assay type: functional, organism-based
[25] = tested on: Mus musculus; assay: Anti-atherosclerotic activity in high fat diet-induced C57BL/6 mouse model of hypercholesterolemia assessed as reduction in hepatic total cholesterol level at 10 to 40 mg/kg, po administered for 12 weeks; assay type: functional, organism-based
[26] = tested on: Mus musculus; assay: Anti-atherosclerotic activity in high fat diet-induced C57BL/6 mouse model of hypercholesterolemia assessed as reduction in serum total cholesterol level at 10 to 40 mg/kg, po administered for 12 weeks; assay type: functional, organism-based
[27] = tested on: Mus musculus; assay: Anti-atherosclerotic activity in high fat diet-induced C57BL/6 mouse model of hypercholesterolemia assessed as reduction in liver fat administered orally for 12 weeks by ORO staining based microscopic analysis; assay type: functional, organism-based
[28] = tested on: Mus musculus; assay: Anti-atherosclerotic activity in high fat diet-induced C57BL/6 mouse model of hypercholesterolemia assessed as decrease in ACC mRNA expression in liver at 10 to 40 mg/kg, po administered for 12 weeks by RT-qPCR analysis; assay type: functional, organism-based
[29] = tested on: Mus musculus; assay: Anti-atherosclerotic activity in high fat diet-induced C57BL/6 mouse model of hypercholesterolemia assessed as increase in ABCG8 mRNA expression in liver at 10 to 40 mg/kg, po administered for 12 weeks by RT-qPCR analysis; assay type: functional, organism-based
[30] = biological target: T3, Oxysterols receptor LXR-alpha (Homo sapiens) (UniProt Q13133); assay: Agonist activity at human LXRalpha transfected in HEK293T cells at 10 uM incubated for 20 hrs in presence of LXR antagonist SR9243 by luciferase reporter gene assay relative to control; assay type: cell-based
T3 sequence (whole entry): T2 sequence (Q13133 whole entry)

[31] = tested on: Mus musculus; assay: Anti-atherosclerotic activity in high fat diet-induced C57BL/6 mouse model of hypercholesterolemia assessed as increase in ABCG5 mRNA expression in liver at 10 to 40 mg/kg, po administered for 12 weeks by RT-qPCR analysis; assay type: functional, organism-based
[32] = tested on: 3T3-L1; assay: Anti-adipogenic activity in mouse 3T3L1 preadipocytes assessed as decrease in triglyceride accumulation; assay type: functional, cell-based
[33] = tested on: Mus musculus; assay: Anti-atherosclerotic activity in high fat diet-induced C57BL/6 mouse model of hypercholesterolemia assessed as decrease in sREBP-1c mRNA expression in liver at 10 to 40 mg/kg, po administered for 12 weeks by RT-qPCR analysis; assay type: functional, organism-based
[34] = tested on: RAW264.7; assay: Effect on LXR mRNA expression in mouse RAW264.7 cells at 10 uM incubated for 48 hrs by qPCR analysis; assay type: cell-based; settings: raw264.7, 48 h
[35] = tested on: HEK-293T; assay: Cytotoxicity against HEK293T cells assessed as reduction in cell viability at […] incubated for 24 hrs by MTT assay; assay type: cell-based; settings: human
[36] = tested on: PBMC; assay: Anti-atherosclerotic activity in C57BL/6 mouse PBMC assessed as inhibition of ox-LDL induced lipid accumulation at 10 uM incubated for 48 hrs by ORO staining based microscopic analysis; assay type: functional, cell-based
[37] = tested on: Mus musculus; assay: Anti-atherosclerotic activity in high fat diet-induced C57BL/6 mouse model of hypercholesterolemia assessed as decrease in SCD1 mRNA expression in liver at 10 to 40 mg/kg, po administered for 12 weeks by RT-qPCR analysis; assay type: functional, organism-based
[38] = tested on: Mus musculus; assay: Induction of hepatic steatosis in C57BL/6 mouse assessed as accumulation of serum triglyceride level at 50 mg/kg/day, ig administered for 7 days; assay type: organism-based; settings: in vivo, po, 168 h
[39] = tested on: RAW264.7; assay: Cytotoxicity against mouse RAW264.7 cells assessed as reduction in cell viability at 2 to 50 µM incubated for 24 hrs by MTT assay; assay type: cell-based; settings: raw264.7, 24 h
[40] = tested on: PBMC; assay: Effect on LXR mRNA expression in C57BL/6 mouse PBMC at 10 uM incubated for 48 hrs by qPCR analysis; assay type: cell-based
[41] = tested on: Mus musculus; assay: Induction of hepatic steatosis in C57BL/6 mouse assessed as effect on serum LDL-C at 50 mg/kg/day, ig administered for 7 days; assay type: organism-based; settings: in vivo, po, 168 h
[42] = tested on: HepG2; assay: Cytotoxicity against human HepG2 cells assessed as reduction in cell viability at 2 to 50 uM incubated for 24 hrs by MTT assay; assay type: cell-based; settings: hepg2, 24 h

- Activity [3]: Not Active
- Activity [4]: Active
- Activity [5]: Active
- Activity [7]: Not Active
- fold change (FC) [8]: 2.42
- fold induction at 20 h, 10 µM [9]: 2.19
- Activity [10]: Active
- Activity [11]: Active
SMILES: O=C(O)Cc1cccc(OCCCN(Cc2cccc(C(F)(F)F)c2Cl)CC(c2ccccc2)c2ccccc2)c1
- Activity [1]: Toxic
- Ratio [2]: 1.11
- Activity [6]: inactive

- Activity [3]: Not Active
- Activity [4]: Active
- Activity [5]: Active
- Activity [7]: Active
- fold change (FC) [8]: 4.27
- Activity [30]: inactive
- fold induction at 20 h, 10 µM [9]: 4.27
- Activity [10]: Active
SMILES: CC(C)C(=O)CC[C@@H](C)[C@H]1CC[C@H]2[C@@H]3C[C@H](O)[C@H]4C[C@H](O)CC[C@]4(C)[C@H]3CC[C@]12C
- Activity [12]: Active
- Activity [1]: Non-Toxic
- inhibition [13]: Active
- Activity [14]: Active
- Activity [15]: inactive
- Ratio [2]: 1
- Activity [16]: Active
- Activity [17]: Active
- Activity [18]: Non-Toxic
- Activity [19]: Active
- Activity [20]: Active
- Activity [21]: Active
- inhibition [22]: Active
- Activity [23]: Active
- Activity [24]: Active
- Activity [6]: Active
- Activity [25]: Active
- Activity [26]: Active
- Activity [27]: Dose-dependent effect
- Activity [28]: Active
- Activity [29]: Active
- Activity [31]: Active
- Activity [32]: inactive
- Activity [33]: Active
- Activity [34]: Non-Toxic
- Activity [35]: Non-Toxic
- inhibition [36]: Active
- Activity [37]: Active
- Activity [38]: Non-Toxic
- Activity [39]: Non-Toxic
- Activity [40]: Non-Toxic
- Activity [41]: Non-Toxic
- Activity [42]: Non-Toxic
